Some results are limits rather than exact numbers.

T1 sequence (Q05397 whole entry): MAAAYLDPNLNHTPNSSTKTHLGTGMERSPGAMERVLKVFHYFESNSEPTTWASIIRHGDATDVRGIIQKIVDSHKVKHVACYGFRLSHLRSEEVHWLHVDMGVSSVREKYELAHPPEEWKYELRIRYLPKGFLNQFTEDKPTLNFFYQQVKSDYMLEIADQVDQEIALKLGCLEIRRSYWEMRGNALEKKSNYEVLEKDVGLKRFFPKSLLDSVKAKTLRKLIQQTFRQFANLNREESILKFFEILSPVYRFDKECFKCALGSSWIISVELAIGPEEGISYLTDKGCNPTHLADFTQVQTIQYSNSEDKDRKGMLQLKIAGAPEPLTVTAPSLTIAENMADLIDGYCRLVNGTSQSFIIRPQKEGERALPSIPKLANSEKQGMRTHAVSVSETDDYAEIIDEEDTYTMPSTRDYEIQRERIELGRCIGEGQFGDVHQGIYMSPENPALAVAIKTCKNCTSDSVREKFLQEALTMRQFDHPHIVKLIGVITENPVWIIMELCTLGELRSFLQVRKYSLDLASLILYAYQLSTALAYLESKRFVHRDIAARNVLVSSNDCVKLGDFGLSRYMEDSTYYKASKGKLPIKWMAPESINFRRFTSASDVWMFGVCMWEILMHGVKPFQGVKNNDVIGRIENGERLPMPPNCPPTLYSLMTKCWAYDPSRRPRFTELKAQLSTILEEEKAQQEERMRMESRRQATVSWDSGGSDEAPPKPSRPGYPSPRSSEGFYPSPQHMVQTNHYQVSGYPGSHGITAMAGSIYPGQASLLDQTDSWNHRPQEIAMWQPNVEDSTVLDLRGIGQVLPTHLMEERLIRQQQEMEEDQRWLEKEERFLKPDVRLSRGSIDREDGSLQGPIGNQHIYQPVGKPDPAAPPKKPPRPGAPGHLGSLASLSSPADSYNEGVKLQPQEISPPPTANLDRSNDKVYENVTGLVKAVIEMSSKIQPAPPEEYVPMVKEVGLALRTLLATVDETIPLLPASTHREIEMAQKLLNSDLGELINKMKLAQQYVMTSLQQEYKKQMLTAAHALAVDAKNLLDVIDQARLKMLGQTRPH

The experiment concerns the target T1, FAK phosphorylated at Y397 in HEK-FAK cell line overexpressing human FL FAK protein (Homo sapiens, UniProt Q05397).
T1 construct: expressed in transfected cells
Put plainly: Cell based assay, Phospho-FAK ELISA. The note with it: HEK stb; read-out: pFAK EC50 (μM) HEK stb. An outline of the steps: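 Stable HEK293 line overexpressing full-length human FAK, kept under 0.8 mg/mL Zeocin. In lysates, FAK Y397 autophosphorylation was measured by sandwich ELISA: total-FAK capture antibody, biotinylated pY397-specific detection antibody, streptavidin-HRP with TMB substrate.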
Turning to `Cn1cc(Nc2ncc3ccn(S(=O)(=O)c4cccc5cccnc45)c3n2)cn1` [Example 318], the concentration for a half-maximal effect (EC50) (commonly the concentration at which the effect is half-maximal) is above 1 µM.
Next, `Cc1cc(Nc2ncc3cnn(S(=O)(=O)c4cccc5cccnc45)c3n2)ccc1N1CCNCC1` [Example 332]: below 0.02 µM; `CC(=O)Nc1cccc(Nc2cc3c(cn2)cnn3Cc2ccccc2OC(F)F)c1` [Example 64]: above 1 µM; `FC(F)Oc1ccccc1Cn1ncc2cnc(Nc3ccc4ncsc4c3)cc21` [Example 82]: above 1 µM.
`CN(c1ncccc1Cn1ccc2cnc(Nc3ccc(NCCO)cc3)nc21)S(C)(=O)=O` [Example 201]: the EC50 is above 1 µM.
On to `CN(c1ncccc1Cn1ncc2cnc(Nc3ccc4[nH]c(=O)[nH]c4c3)cc21)S(C)(=O)=O` [Example 142], for which the concentration for a half-maximal effect (EC50) was above 1 µM.
In the case of `O=S(=O)(c1cccc2nsnc12)n1ccc2cnc(Nc3ccc(N4CCNCC4)cc3)nc21` [Example 253], the EC50 is above 1 µM.
In the case of `FC(F)Oc1ccccc1Cn1ccc2cnc(Nc3ccc4ncsc4c3)nc21` [Example 36], the EC50 is above 1 µM.
`CN(c1ncccc1Cn1ccc2cnc(Nc3ccc(N4CCCC4CO)cc3)nc21)S(C)(=O)=O` (centres unmarked) [Example 536]: the 50% effective concentration (EC50) is above 1 µM.
For `CN(c1ncccc1Cn1ncc2cnc(Nc3ccc4c(c3)CCC(=O)N4)nc21)S(C)(=O)=O` [Example 202] the value was above 1 µM.
Next, `O=C1CCc2cc(Nc3ncc4cnn(Cc5ccccc5OC(F)F)c4n3)ccc2N1` [Example 21]: above 1 µM; `O=C1CCc2cc(Nc3ncc4ccn(Cc5cccnc5N5CCCS5(=O)=O)c4n3)ccc2N1` [Example 216]: above 1 µM; `COc1cc(N2CCNCC2)ccc1Nc1cc2c(ccn2S(=O)(=O)c2cccc3cccnc23)cn1` [Example 330, N-(2-Methoxy-4-(piperazin-1-yl)phenyl)-1-(quinolin-8-ylsulfonyl)-1H-pyrrolo[3,2-c]pyridin-6-amine]: below 0.02 µM.
In the case of `COc1ccccc1S(=O)(=O)n1ncc2cnc(Nc3ccc(N4CCNCC4)cc3)nc21` [Example 335], the EC50 is above 1 µM.
